In publication PMC10408569, “Recruitment of hexahydroquinoline as anticancer scaffold targeting inhibition of wild and mutants EGFR (EGFR^WT, EGFR^T790M, and EGFR^L858R)” (Journal of Enzyme Inhibition and Medicinal Chemistry, 2023):

Legend:
BT-549 = assay: NCI-60 anticancer screening (SRB); type: cell-based; details: Homo sapiens; BT-549, breast cancer; one dose 10 μM; read-out: Growth Inhibition Percentage (GI %)
CCRF-CEM = assay: NCI-60 anticancer screening (SRB); type: cell-based; details: Homo sapiens, leukemia, one dose 10 μM, read-out: Growth Inhibition Percentage (GI %)
UACC-257 = assay: NCI-60 anticancer screening (SRB); type: cell-based; details: Homo sapiens; UACC-257, melanoma; one dose 10 μM; read-out: Growth Inhibition Percentage (GI %)
HL-60(TB) = assay: NCI-60 anticancer screening (SRB); type: cell-based; details: Homo sapiens, leukemia, one dose 10 μM, read-out: Growth Inhibition Percentage (GI %)
NCI-H322M = assay: NCI-60 anticancer screening (SRB); type: cell-based; details: Homo sapiens, NSC lung cancer, one dose 10 μM, read-out: Growth Inhibition Percentage (GI %)
M14 = assay: NCI-60 anticancer screening (SRB); type: cell-based; details: Homo sapiens; M14, melanoma; one dose 10 μM; read-out: Growth Inhibition Percentage (GI %)
SR = assay: NCI-60 anticancer screening (SRB); type: cell-based; details: Homo sapiens, leukemia, one dose 10 μM, read-out: Growth Inhibition Percentage (GI %)
SW-620 = assay: NCI-60 anticancer screening (SRB); type: cell-based; details: Homo sapiens; SW-620, colon cancer; one dose 10 μM; read-out: Growth Inhibition Percentage (GI %)
COLO 205 = assay: NCI-60 anticancer screening (SRB); type: cell-based; details: Homo sapiens; COLO 205, colon cancer; one dose 10 μM; read-out: Growth Inhibition Percentage (GI %)
HCT-116 = assay: NCI-60 anticancer screening (SRB); type: cell-based; details: Homo sapiens; HCT-116, colon cancer; one dose 10 μM; read-out: Growth Inhibition Percentage (GI %)
NCI 60 cancer cell lines = assay: NCI-60 anticancer screening (SRB), whole panel; type: cell-based, human; details: mean across the NCI-60 panel; one dose 10 μM
SK-OV-3 = assay: NCI-60 anticancer screening (SRB); type: cell-based; details: Homo sapiens; SK-OV-3, ovarian cancer; one dose 10 μM; read-out: Growth Inhibition Percentage (GI %)
A498 = assay: NCI-60 anticancer screening (SRB); type: cell-based; details: Homo sapiens; A498, renal cancer; one dose 10 μM; read-out: Growth Inhibition Percentage (GI %)
KM 12 = assay: NCI-60 anticancer screening (SRB); type: cell-based; details: Homo sapiens, KM12; KM 12, colon cancer; one dose 10 μM; read-out: Growth Inhibition Percentage (GI %)
786-0 = assay: NCI-60 anticancer screening (SRB); type: cell-based; details: Homo sapiens; 786-0, renal cancer; one dose 10 μM; read-out: Growth Inhibition Percentage (GI %)
T-47D = assay: NCI-60 anticancer screening (SRB); type: cell-based; details: Homo sapiens, T47D, breast cancer, one dose 10 μM, read-out: Growth Inhibition Percentage (GI %)
MDA-MB-231 = assay: NCI-60 anticancer screening (SRB); type: cell-based; details: Homo sapiens; MDA-MB-231, breast cancer; one dose 10 μM; read-out: Growth Inhibition Percentage (GI %)
IGROV1 = assay: NCI-60 anticancer screening (SRB); type: cell-based; details: Homo sapiens, IGROV-1; IGROV1, ovarian cancer; one dose 10 μM; read-out: Growth Inhibition Percentage (GI %)
MDA-MB-468 = assay: NCI-60 anticancer screening (SRB); type: cell-based; details: Homo sapiens; MDA-MB-468, breast cancer; one dose 10 μM; read-out: Growth Inhibition Percentage (GI %)
RXF 393 = assay: NCI-60 anticancer screening (SRB); type: cell-based; details: Homo sapiens; RXF 393, renal cancer; one dose 10 μM; read-out: Growth Inhibition Percentage (GI %)
HCT-15 = assay: NCI-60 anticancer screening (SRB); type: cell-based; details: Homo sapiens; HCT-15, colon cancer; one dose 10 μM; read-out: Growth Inhibition Percentage (GI %)
K-562 = assay: NCI-60 anticancer screening (SRB); type: cell-based; details: Homo sapiens, K562; K-562, leukemia; one dose 10 μM; read-out: Growth Inhibition Percentage (GI %)
PC-3 = assay: NCI-60 anticancer screening (SRB); type: cell-based; details: Homo sapiens; PC-3, prostate cancer; one dose 10 μM; read-out: Growth Inhibition Percentage (GI %)
U251 = assay: NCI-60 anticancer screening (SRB); type: cell-based; details: Homo sapiens, U-251; U251, CNS cancer; one dose 10 μM; read-out: Growth Inhibition Percentage (GI %)
MCF7 = assay: NCI-60 anticancer screening (SRB); type: cell-based; details: Homo sapiens; MCF7, breast cancer; one dose 10 μM; read-out: Growth Inhibition Percentage (GI %)
LOX IMVI = assay: NCI-60 anticancer screening (SRB); type: cell-based; details: Homo sapiens, melanoma, one dose 10 μM, read-out: Growth Inhibition Percentage (GI %)
TK-10 = assay: NCI-60 anticancer screening (SRB); type: cell-based; details: Homo sapiens; TK-10, renal cancer; one dose 10 μM; read-out: Growth Inhibition Percentage (GI %)
NCI/ADR-RES = assay: NCI-60 anticancer screening (SRB); type: cell-based; details: Homo sapiens, ovarian cancer, one dose 10 μM, read-out: Growth Inhibition Percentage (GI %)
NCI-H226 = assay: NCI-60 anticancer screening (SRB); type: cell-based; details: Homo sapiens; NCI-H226, NSC lung cancer; one dose 10 μM; read-out: Growth Inhibition Percentage (GI %)
OVCAR-5 = assay: NCI-60 anticancer screening (SRB); type: cell-based; details: Homo sapiens; OVCAR-5, ovarian cancer; one dose 10 μM; read-out: Growth Inhibition Percentage (GI %)
SF-268 = assay: NCI-60 anticancer screening (SRB); type: cell-based; details: Homo sapiens; SF-268, CNS cancer; one dose 10 μM; read-out: Growth Inhibition Percentage (GI %)
SNB-75 = assay: NCI-60 anticancer screening (SRB); type: cell-based; details: Homo sapiens; SNB-75, CNS cancer; one dose 10 μM; read-out: Growth Inhibition Percentage (GI %)
SK-MEL-2 = assay: NCI-60 anticancer screening (SRB); type: cell-based; details: Homo sapiens; SK-MEL-2, melanoma; one dose 10 μM; read-out: Growth Inhibition Percentage (GI %)

| SMILES | inhibition at 10 µM (BT-549) [%] | inhibition at 10 µM (CCRF-CEM) [%] | inhibition at 10 µM (UACC-257) [%] | inhibition at 10 µM (HL-60(TB)) [%] | inhibition at 10 µM (NCI-H322M) [%] | inhibition at 10 µM (M14) [%] | inhibition at 10 µM (SR) [%] | inhibition at 10 µM (SW-620) [%] | inhibition at 10 µM (COLO 205) [%] | inhibition at 10 µM (HCT-116) [%] | GI % mean (NCI 60 cancer cell lines) [%] | inhibition at 10 µM (SK-OV-3) [%] | inhibition at 10 µM (A498) [%] | inhibition at 10 µM (KM 12) [%] | inhibition at 10 µM (786-0) [%] | inhibition at 10 µM (T-47D) [%] | inhibition at 10 µM (MDA-MB-231) [%] | inhibition at 10 µM (IGROV1) [%] | inhibition at 10 µM (MDA-MB-468) [%] | inhibition at 10 µM (RXF 393) [%] | further results |
| --- | --- | --- | --- | --- | --- | --- | --- | --- | --- | --- | --- | --- | --- | --- | --- | --- | --- | --- | --- | --- | --- |
| CCOC(=O)C1=C(N)N(c2ccccc2)C2=C(C(=O)CC(C)(C)C2)C1c1cccc(Cl)c1Cl (racemic) [10a, (±)-Ethyl 2-amino-4–(2,3-dichlorophenyl)-7,7-dimethyl-5-oxo-1-phenyl-1,4,5,6,7,8-hexahydroquinoline-3-carboxylate] | 31 | 45 | 15 | 54 | 22 | 12 | 44 | < 10 | 19 | 60 | 35 | 18 | < 10 | 23 | 42 | 28 | 40 | 16 | 52 | 47 | inhibition at 10 µM (HCT-15): 34%; inhibition at 10 µM (K-562): 40%; inhibition at 10 µM (PC-3): 65%; inhibition at 10 µM (U251): 45%; inhibition at 10 µM (MCF7): 40%; inhibition at 10 µM (LOX IMVI): 22%; inhibition at 10 µM (TK-10): < 10%; inhibition at 10 µM (NCI/ADR-RES): 49%; inhibition at 10 µM (NCI-H226): 60%; inhibition at 10 µM (OVCAR-5): 12%; inhibition at 10 µM (SF-268): 34%; inhibition at 10 µM (SNB-75): 43%; inhibition at 10 µM (SK-MEL-2): 41% |
| CCOC(=O)C1=C(N)N(c2ccc(Cl)cc2)C2=C(C(=O)CC(C)(C)C2)C1c1cccc(Cl)c1Cl (racemic) [10b, (±)-Ethyl 2-amino-1–(4-chorophenyl)-4–(2,3-dichlorophenyl)-7,7-dimethyl-5-oxo-1-phenyl-1,4,5,6,7,8-hexahydroquinoline-3-carboxylate] | 31 | 64 | 44 | 77 | < 10 | 16 | 66 | < 10 | 41 | 71 | 36 | 13 | < 10 | 49 | 22 | 41 | 33 | < 10 | 68 | 27 | inhibition at 10 µM (HCT-15): 62%; inhibition at 10 µM (K-562): 71%; inhibition at 10 µM (PC-3): 76%; inhibition at 10 µM (U251): 22%; inhibition at 10 µM (MCF7): 52%; inhibition at 10 µM (LOX IMVI): < 10%; inhibition at 10 µM (TK-10): < 10%; inhibition at 10 µM (NCI/ADR-RES): 32%; inhibition at 10 µM (NCI-H226): 42%; inhibition at 10 µM (OVCAR-5): < 10%; inhibition at 10 µM (SF-268): 22%; inhibition at 10 µM (SNB-75): 22%; inhibition at 10 µM (SK-MEL-2): 20% |
